Results reported in article PMC9732253, “Inhibition of the Phosphatidylinositol-3 Kinase Pathway Using Bimiralisib in Loss-of-Function NOTCH1-Mutant Head and Neck Cancer” (The Oncologist, 2022).

Procedure: All patients received 140 mg bimiralisib (PQR309) orally once daily on 2 consecutive days followed by 5 days without treatment weekly until unacceptable toxicity, tumor progression, patient request for withdrawal, investigator judgment, or death.
Radiologic tumor assessments were performed using computed tomography at baseline and every 6 weeks. Safety was continuously monitored.

## Nc1cc(C(F)(F)F)c(-c2nc(N3CCOCC3)nc(N3CCOCC3)n2)cn1 [Bimiralisib, 5-(4,6-dimorpholino-1,3,5-triazin-2-yl)-4-(trifluoromethyl)pyridin-2-amine]
N = 8
  Pneumonia aspiration, Grade 2, total number of events: 0
  Pneumonia aspiration, Grade 3/4, patients: 2 (25.0) n (%)
  Pneumonia aspiration, Grade 3/4, total number of events: 2
  Presyncope, Grade 1, patients: 0 n (%)
  Presyncope, Grade 1, total number of events: 0
  Presyncope, Grade 2, patients: 1 (12.5) n (%)
  Presyncope, Grade 2, total number of events: 1
  Presyncope, Grade 3/4, patients: 0 n (%)
  Presyncope, Grade 3/4, total number of events: 0
  Pruritus, Grade 1, patients: 1 (12.5) n (%)
  Pruritus, Grade 1, total number of events: 1
  Pruritus, Grade 2, patients: 0 n (%)
  Pruritus, Grade 2, total number of events: 0
  Pruritus, Grade 3/4, patients: 0 n (%)
  Pruritus, Grade 3/4, total number of events: 0
  Psychiatric disorders, Grade 1, patients: 2 (25.0) n (%)
  Psychiatric disorders, Grade 1, total number of events: 2
  Psychiatric disorders, Grade 2, patients: 0 n (%)
  Psychiatric disorders, Grade 2, total number of events: 0
  Psychiatric disorders, Grade 3/4, patients: 0 n (%)
  Psychiatric disorders, Grade 3/4, total number of events: 0
  Pyrexia, Grade 1, patients: 1 (12.5) n (%)
  Pyrexia, Grade 1, total number of events: 1
  Pyrexia, Grade 2, patients: 0 n (%)
  Pyrexia, Grade 2, total number of events: 0
  Pyrexia, Grade 3/4, patients: 0 n (%)
  Pyrexia, Grade 3/4, total number of events: 0
  Rash, Grade 1, patients: 2 (25.0) n (%)
  Rash, Grade 1, total number of events: 2
  Rash, Grade 2, patients: 0 n (%)
  Rash, Grade 2, total number of events: 0
  Rash, Grade 3/4, patients: 0 n (%)
  Rash, Grade 3/4, total number of events: 0
  Renal and urinary disorders, Grade 1, patients: 1 (12.5) n (%)
  Renal and urinary disorders, Grade 1, total number of events: 1
  Renal and urinary disorders, Grade 2, patients: 0 n (%)
  Renal and urinary disorders, Grade 2, total number of events: 0
  Renal and urinary disorders, Grade 3/4, patients: 1 (12.5) n (%)
  Renal and urinary disorders, Grade 3/4, total number of events: 1
  Renal injury, Grade 1, patients: 0 n (%)
  Renal injury, Grade 1, total number of events: 0
  Renal injury, Grade 2, patients: 0 n (%)
  Renal injury, Grade 2, total number of events: 0
  Renal injury, Grade 3/4, patients: 1 (12.5) n (%)
  Renal injury, Grade 3/4, total number of events: 1
  Respiratory, thoracic and mediastinal disorders, Grade 1, patients: 1 (12.5) n (%)
  Respiratory, thoracic and mediastinal disorders, Grade 1, total number of events: 1
  Respiratory, thoracic and mediastinal disorders, Grade 2, patients: 0 n (%)
  Respiratory, thoracic and mediastinal disorders, Grade 2, total number of events: 0
  Respiratory, thoracic and mediastinal disorders, Grade 3/4, patients: 3 (37.5) n (%)
  Respiratory, thoracic and mediastinal disorders, Grade 3/4, total number of events: 4
  Seizure, Grade 1, patients: 1 (12.5) n (%)
  Seizure, Grade 1, total number of events: 1
  Seizure, Grade 2, patients: 0 n (%)
  Seizure, Grade 2, total number of events: 0
  Seizure, Grade 3/4, patients: 0 n (%)
  Seizure, Grade 3/4, total number of events: 0
  Sepsis, Grade 3/4, total number of events: 1
  Skin and subcutaneous tissue disorders, Grade 1, patients: 2 (25.0) n (%)
  Skin and subcutaneous tissue disorders, Grade 1, total number of events: 4
  Skin and subcutaneous tissue disorders, Grade 2, patients: 0 n (%)
  Skin and subcutaneous tissue disorders, Grade 2, total number of events: 0
  Skin and subcutaneous tissue disorders, Grade 3/4, patients: 0 n (%)
  Skin and subcutaneous tissue disorders, Grade 3/4, total number of events: 0
  Skin infection, Grade 3/4, total number of events: 1
  Sunburn, Grade 1, patients: 1 (12.5) n (%)
  Sunburn, Grade 1, total number of events: 1
  Sunburn, Grade 2, patients: 0 n (%)
  Sunburn, Grade 2, total number of events: 0
  Sunburn, Grade 3/4, patients: 0 n (%)
  Sunburn, Grade 3/4, total number of events: 0
  Tinnitus, Grade 1, patients: 1 (12.5) n (%)
  Tinnitus, Grade 1, total number of events: 1
  Tinnitus, Grade 2, patients: 0 n (%)
  Tinnitus, Grade 2, total number of events: 0
  Tinnitus, Grade 3/4, patients: 0 n (%)
  Tinnitus, Grade 3/4, total number of events: 0
  Urinary tract discomfort, Grade 1, patients: 1 (12.5) n (%)
  Urinary tract discomfort, Grade 1, total number of events: 1
  Urinary tract discomfort, Grade 2, patients: 0 n (%)
  Urinary tract discomfort, Grade 2, total number of events: 0
  Urinary tract discomfort, Grade 3/4, patients: 0 n (%)
  Urinary tract discomfort, Grade 3/4, total number of events: 0
  Vascular disorders, Grade 1, patients: 1 (12.5) n (%)
  Vascular disorders, Grade 1, total number of events: 1
  Vascular disorders, Grade 2, patients: 0 n (%)
  Vascular disorders, Grade 2, total number of events: 0
  Vascular disorders, Grade 3/4, patients: 1 (12.5) n (%)
  Vascular disorders, Grade 3/4, total number of events: 1
  Vomiting, Grade 1, patients: 0 n (%)
  Vomiting, Grade 1, total number of events: 0
  Vomiting, Grade 2, patients: 2 (25.0) n (%)
  Vomiting, Grade 2, total number of events: 2
  Vomiting, Grade 3/4, patients: 0 n (%)
  Vomiting, Grade 3/4, total number of events: 0
  Wound infection, Grade 3/4, total number of events: 0
Of 8
  Patients with at least one treatment-emergent AE: 8 patients
on-treatment period
  Nonfatal SAEs not related to bimiralisib: 10
Patient 4, related to treatment
  Time to normalization of grade 3 elevated alanine and aspartate aminotransferase after therapy discontinuation: 28 days
